Molecular target: T1, FtsZ (Filamenting temperature-sensitive mutant Z) (Enterococcus faecalis, UniProt O08439)
T1 construct: recombinant E. faecalis FtsZ protein (FTZ04-B)
Test: SPR (Biacore T200, FtsZ immobilized on CM5 chip); also GTPase inhibition of E. faecalis FtsZ, IC50 […]
Assay type: binding

T1 sequence (O08439 whole entry, change not shown): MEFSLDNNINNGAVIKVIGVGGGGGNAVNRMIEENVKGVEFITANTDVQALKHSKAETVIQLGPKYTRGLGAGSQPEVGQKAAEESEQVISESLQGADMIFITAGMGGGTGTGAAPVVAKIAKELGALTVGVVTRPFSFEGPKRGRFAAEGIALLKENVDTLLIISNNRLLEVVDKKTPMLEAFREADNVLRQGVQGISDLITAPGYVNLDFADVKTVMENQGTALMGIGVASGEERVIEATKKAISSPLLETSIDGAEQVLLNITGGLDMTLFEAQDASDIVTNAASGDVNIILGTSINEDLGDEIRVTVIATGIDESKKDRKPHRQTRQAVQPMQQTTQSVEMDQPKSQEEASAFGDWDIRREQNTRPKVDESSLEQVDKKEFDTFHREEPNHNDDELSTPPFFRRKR

In the case of `CC1=C(O)C(=O)C=C2C1=CC=C1[C@@]2(C)CC[C@@]2(C)[C@@H]3C[C@](C)(C(=O)O)CC[C@]3(C)CC[C@]12C` [CEL, celastrol], the Kd is reported as 2450 nM.
